For test [1], the target named is NLRP3 inflammasome (Mus musculus, UniProt Q8R4B8). As to the kind of experiment: Inhibition of IL-1β release, NLRP3 inflammasome activation assay in BMDM. It is filed as cell-based. As to the method: The following assays can be used to determine inhibitory activity of test compounds on the NLRP3 inflammasome using common stimuli such as adenosine triphosphate, nigericin, LeuLeu-OMe or monosodium urate crystals (MSU).
Mouse bone marrow-derived macrophages (BMDM) were derived from bone marrow progenitors isolated from the femurs and tibias of C57BL/6 mice.
BMDM are seeded at 1×10^5/ml. The following day the overnight medium is replaced and cells are stimulated with Ultrapure lipopolysaccharide from Escherichia coli K12 strain (InvivoGen) for 3 h. Medium is removed and replaced with serum free medium (SFM) containing test compound 30 min prior to NLRP3 stimulation. […] ATP can be sourced from Sigma Aldrich, nigericin and MSU from Invivogen and LeuLeu-Ome from Chem-Impex International.
For ELISA and cell death assays cells are seeded in 96 well plates. Supernatants are removed and analysed using ELISA kits according to the manufacturer's instructions (DuoSet® R&D Systems, ReadySetGo!® eBioscience, BD OptEIA™, or Perkin Elmer AlphaLISA®). Cell death is assessed by measurement of LDH release relative to a 100% cell lysis control using the CytoTox96® non-radioactive cytotoxicity assay (Promega).

In test [2] the target is NLRP3 inflammasome (Homo sapiens, UniProt Q96P20). As to the kind of experiment: Inhibition of IL-1β release, NLRP3 inflammasome activation assay in HMDM. It is filed as cell-based. The method in brief: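 Primary human monocyte-derived macrophages from CD14+ buffy-coat monocytes, seeded at 1×10^5/ml. Compound added in serum-free medium 30 min before NLRP3 stimulation (ATP, nigericin, LeuLeu-OMe or MSU). Cytokine in supernatants measured by ELISA or AlphaLISA; cell death by LDH release relative to full lysis.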

Setting [3] is: inhibition of IL-1β release, class symbols, read-out: Avg. IL-1β IC50 Murine BMDM.
The mark [4] stands for this setting: inhibition of IL-1β release, class symbols, read-out: Avg. IL-1β IC50 HMDM.
The mark [5] stands for this setting: select compounds of the first aspect (Table 10), read-out: BMDM IC50 vs NLRP3.
The mark [6] stands for this setting: select compounds of the first aspect (Table 10), read-out: HMDM IC50 vs NLRP3.
Setting [7] is: commercial compounds (Table 9), read-out: BMDM IC50 vs NLRP3.
Setting [8] is: commercial compounds (Table 9), read-out: HMDM IC50 vs NLRP3.
Where [9] appears, read: inhibition of IL-1β release, numeric bounds, read-out: Avg. IL-1β IC50 Murine BMDM.

Like-named read-outs stand apart in the source and are kept apart here. Bounds are passed on as bounds.

Sequence of NLRP3 inflammasome (Homo sapiens, UniProt Q96P20) (Q96P20 whole entry): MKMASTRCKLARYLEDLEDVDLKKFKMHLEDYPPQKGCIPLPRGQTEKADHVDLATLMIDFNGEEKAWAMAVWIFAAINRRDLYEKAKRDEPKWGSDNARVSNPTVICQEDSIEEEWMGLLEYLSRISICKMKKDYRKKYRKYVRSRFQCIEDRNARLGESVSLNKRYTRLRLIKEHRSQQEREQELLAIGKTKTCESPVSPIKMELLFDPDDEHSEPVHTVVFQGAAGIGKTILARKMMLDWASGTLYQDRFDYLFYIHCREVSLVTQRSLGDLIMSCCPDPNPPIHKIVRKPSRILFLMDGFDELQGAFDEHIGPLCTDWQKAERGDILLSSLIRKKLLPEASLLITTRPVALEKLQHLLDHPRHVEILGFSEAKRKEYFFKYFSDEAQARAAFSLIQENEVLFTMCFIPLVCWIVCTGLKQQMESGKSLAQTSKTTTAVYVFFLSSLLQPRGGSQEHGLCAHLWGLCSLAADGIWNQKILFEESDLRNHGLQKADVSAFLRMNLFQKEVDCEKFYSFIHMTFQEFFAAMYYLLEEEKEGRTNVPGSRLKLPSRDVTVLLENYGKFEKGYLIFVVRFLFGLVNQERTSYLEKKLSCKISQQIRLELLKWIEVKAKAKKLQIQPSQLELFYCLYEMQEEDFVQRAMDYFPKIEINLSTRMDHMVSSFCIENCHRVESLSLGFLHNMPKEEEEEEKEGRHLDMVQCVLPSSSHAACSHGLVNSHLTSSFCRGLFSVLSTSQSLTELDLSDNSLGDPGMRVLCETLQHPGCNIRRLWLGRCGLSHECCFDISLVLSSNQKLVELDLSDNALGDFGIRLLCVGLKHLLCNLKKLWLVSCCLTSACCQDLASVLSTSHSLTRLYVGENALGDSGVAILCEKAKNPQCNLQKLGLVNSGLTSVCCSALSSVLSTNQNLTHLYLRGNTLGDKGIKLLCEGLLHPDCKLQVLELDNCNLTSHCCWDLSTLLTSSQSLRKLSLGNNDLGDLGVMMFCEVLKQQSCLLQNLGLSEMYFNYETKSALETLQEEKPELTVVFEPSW
Sequence of NLRP3 inflammasome (Mus musculus, UniProt Q8R4B8) (Q8R4B8 whole entry): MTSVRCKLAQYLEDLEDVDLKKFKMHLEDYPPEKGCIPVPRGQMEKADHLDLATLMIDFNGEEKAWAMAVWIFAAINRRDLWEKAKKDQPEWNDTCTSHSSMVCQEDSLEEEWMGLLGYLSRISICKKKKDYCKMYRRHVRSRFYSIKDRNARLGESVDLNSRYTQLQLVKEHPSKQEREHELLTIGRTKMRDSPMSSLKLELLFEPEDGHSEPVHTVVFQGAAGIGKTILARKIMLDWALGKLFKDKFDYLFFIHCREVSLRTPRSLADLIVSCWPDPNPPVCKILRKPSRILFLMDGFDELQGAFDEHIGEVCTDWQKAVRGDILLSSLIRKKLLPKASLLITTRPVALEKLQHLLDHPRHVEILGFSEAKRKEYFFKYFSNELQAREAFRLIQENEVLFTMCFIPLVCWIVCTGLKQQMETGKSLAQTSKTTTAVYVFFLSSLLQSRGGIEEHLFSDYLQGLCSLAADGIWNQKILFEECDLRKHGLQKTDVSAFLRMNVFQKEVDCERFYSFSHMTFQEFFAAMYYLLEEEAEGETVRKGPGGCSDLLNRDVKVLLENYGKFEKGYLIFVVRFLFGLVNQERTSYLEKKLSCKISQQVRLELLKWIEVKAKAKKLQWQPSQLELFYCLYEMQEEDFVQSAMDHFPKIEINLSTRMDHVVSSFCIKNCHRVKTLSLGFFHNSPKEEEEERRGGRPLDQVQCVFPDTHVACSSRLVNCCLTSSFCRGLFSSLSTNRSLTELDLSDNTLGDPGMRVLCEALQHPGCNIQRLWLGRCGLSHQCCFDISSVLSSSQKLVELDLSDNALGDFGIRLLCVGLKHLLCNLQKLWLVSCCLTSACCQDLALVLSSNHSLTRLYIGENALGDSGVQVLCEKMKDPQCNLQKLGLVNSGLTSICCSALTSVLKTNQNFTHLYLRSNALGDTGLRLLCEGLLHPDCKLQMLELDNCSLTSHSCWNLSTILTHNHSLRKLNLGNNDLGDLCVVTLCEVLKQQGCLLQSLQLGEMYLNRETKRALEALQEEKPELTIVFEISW

The IC50 is the concentration at which inhibition is half-maximal. Turning to `O=C(Nc1c2c(cc3c1CCC3)CCC2)NS(=O)(=O)c1cccc(OC(F)(F)F)c1` [N-((1,2,3,5,6,7-hexahydro-s-indacen-4-yl)carbamoyl)-3-(trifluoromethoxy)benzenesulfonamide], the IC50 on NLRP3 inflammasome [1] (setting [3]) and at NLRP3 inflammasome [2] (setting [4]) was less than 1 µM throughout.
As for `CC(C)c1cc(Cl)cc(C(C)C)c1NC(=O)NS(=O)(=O)c1cc2ccccc2o1` [N-((4-chloro-2,6-diisopropylphenyl)carbamoyl)benzofuran-2-sulfonamide], the IC50 at NLRP3 inflammasome [1] (setting [3]) and on NLRP3 inflammasome [2] (setting [4]) was less than 0.1 µM each time.
Turning to `CCC1=C(C)CN(C(=O)NCCc2ccc(S(=O)(=O)NC(=O)Nc3c4c(cc5c3CCC5)CCC4)cc2)C1=O` [3-Ethyl-N-(4-(N-((1,2,3,5,6,7-hexahydro-s-indacen-4-yl)carbamoyl)sulfamoyl)phenethyl)-4-methyl-2-oxo-2,5-dihydro-1H-pyrrole-1-carboxamide], the IC50 at NLRP3 inflammasome [1] (setting [3]) and at NLRP3 inflammasome [2] (setting [4]) was less than 1 µM each time.
Consider `COc1ccc(Cl)cc1C(=O)NCCc1ccc(S(=O)(=O)NC(=O)Nc2c3c(cc4c2CCC4)CCC3)cc1`, for which the IC50 at NLRP3 inflammasome [1] (setting [3]) and on NLRP3 inflammasome [2] (setting [4]) was less than 1 µM throughout.
Take `CC(=O)c1ccc(S(=O)(=O)NC(=O)Nc2c3c(cc4c2CCC4)CCC3)cc1` [drawing 363]: the IC50 was 0.036 µM at NLRP3 inflammasome [1] (setting [5]) and 0.31 µM on NLRP3 inflammasome [2] (setting [6]).
Regarding `COc1ccc2c(c1)C(=O)N(CCc1ccc(S(N)(=O)=O)cc1)C(=O)C2(C)C` [Gliquidone precursor, 4-(2-(7-Methoxy-4,4-dimethyl-1,3-dioxo-3,4-dihydroisoquinolin-2(1H)-yl)ethyl)benzenesulfonamide, reference compound], the IC50 is greater than 10 µM on NLRP3 inflammasome [1] (setting [7]) and greater than 200 µM on NLRP3 inflammasome [2] (setting [8]).
`CC(C)(O)c1coc(S(=O)(=O)NC(=O)Nc2ccc(C(F)(F)F)cc2C(F)(F)F)c1` [N-((2,4-bis(trifluoromethyl)phenyl)carbamoyl)-4-(2-hydroxypropan-2-yl)furan-2-sulfonamide]: the figures for the IC50 at NLRP3 inflammasome [1] (setting [3]) and on NLRP3 inflammasome [2] (setting [4]) were less than 1 µM and less than 10 µM, respectively.
On to `COc1ccc2c(c1)C(=O)N(CCc1ccc(S(N)(=O)=O)cc1)C(=O)C2(C)C` [4-(2-(7-methoxy-4,4-dimethyl-1,3-dioxo-3,4-dihydroisoquinolin-2(1H)-yl)ethyl)benzenesulfonamide, reference compound], for which the IC50 at NLRP3 inflammasome [1] (setting [9]) was greater than 10 µM; at NLRP3 inflammasome [2] (inhibition of IL-1β release, numeric bounds, read-out: Avg. IL-1β IC50 HMDM), greater than 200 µM.
`CC(C)n1cc(S(=O)(=O)NC(=O)Nc2c3c(cc4c2CCC4)CCC3)nn1` [N-((1,2,3,5,6,7-hexahydro-s-indacen-4-yl)carbamoyl)-1-isopropyl-1H-1,2,3-triazole-4-sulfonamide]: the IC50 on NLRP3 inflammasome [1] (setting [3]) was less than 1 µM; on NLRP3 inflammasome [2] (setting [4]), less than 0.1 µM.
Take `COc1ccc(Cl)cc1C(=O)NCCc1ccc(S(=O)(=O)NC(=O)Nc2c3c(cc4c2CCC4)CCC3)cc1` [drawing 358]: the IC50 at NLRP3 inflammasome [1] (setting [5]) is 0.24 µM; on NLRP3 inflammasome [2] (setting [6]) it was 0.14 µM.
The corresponding values for `Nc1ccc(S(=O)(=O)NC(=O)Nc2c3c(cc4c2CCC4)CCC3)cc1` [drawing 365] are 0.014 µM and 0.31 µM.
On to `O=C(Nc1ccc2ncccc2c1)NS(=O)(=O)c1cccc(C2(C(F)(F)F)N=N2)c1` [N-(quinolin-6-ylcarbamoyl)-3-(3-(trifluoromethyl)-3H-diazirin-3-yl)benzenesulfonamide], for which the IC50 at NLRP3 inflammasome [1] (inhibition of IL-1β release, uM, read-out: Avg. IL-1β IC50 Murine BMDM) is greater than 50 µM; at NLRP3 inflammasome [2] (inhibition of IL-1β release, uM, read-out: Avg. IL-1β IC50 HMDM), greater than 50 µM.
With `CC(C)(O)c1coc(S(=O)(=O)NC(=O)Nc2c3c(c(Cl)c4c2CCC4)CCC3)c1` [N-((8-chloro-1,2,3,5,6,7-hexahydro-s-indacen-4-yl)carbamoyl)-4-(2-hydroxypropan-2-yl)furan-2-sulfonamide], the IC50 on NLRP3 inflammasome [1] (setting [3]) and at NLRP3 inflammasome [2] (setting [4]) was less than 0.1 µM in each case.
Consider `O=C(Nc1ccc(Cl)cc1)NS(=O)(=O)c1ccc2c(c1)CCC2` [Sulofenur, reference compound], for which the IC50 was greater than 10 µM on NLRP3 inflammasome [1] (setting [7]) and greater than 100 µM at NLRP3 inflammasome [2] (setting [8]).
As to `COc1ccc2c(c1NC(=O)NS(=O)(=O)c1cc(C(C)(C)O)co1)CCC2` [4-(2-hydroxypropan-2-yl)-N-((5-methoxy-2,3-dihydro-1H-inden-4-yl)carbamoyl)furan-2-sulfonamide], the IC50 at NLRP3 inflammasome [1] (setting [3]) and at NLRP3 inflammasome [2] (setting [4]) was less than 1 µM in each case.
Take `CC(C)(O)c1coc(S(=O)(=O)NC(=O)Nc2c3c(c(Br)c4c2CCC4)CCC3)c1` [N-((8-bromo-1,2,3,5,6,7-hexahydro-s-indacen-4-yl)carbamoyl)-4-(2-hydroxypropan-2-yl)furan-2-sulfonamide]: the IC50 at NLRP3 inflammasome [1] (setting [3]) and on NLRP3 inflammasome [2] (setting [4]) was less than 0.1 µM throughout.
Regarding `CCC1=C(C)CN(C(=O)NCCc2ccc(S(=O)(=O)NC(=O)Nc3c4c(cc5c3CCC5)CCC4)cc2)C1=O` [drawing 360], the figures for the IC50 at NLRP3 inflammasome [1] (setting [5]) and at NLRP3 inflammasome [2] (setting [6]) were 0.22 µM and 0.65 µM, respectively.
Regarding `O=C(Nc1c2c(cc3c1CCC3)CCC2)NS(=O)(=O)c1cccc(C(F)(F)F)c1` [N-((1,2,3,5,6,7-hexahydro-s-indacen-4-yl)carbamoyl)-3-(trifluoromethyl)benzenesulfonamide], the results for the IC50 at NLRP3 inflammasome [1] (setting [3]) and at NLRP3 inflammasome [2] (setting [4]) were less than 1 µM and less than 0.1 µM, respectively.
Taken in the same sequence, the figures for `CC(C)(O)c1coc(S(=O)(=O)NC(=O)Nc2cc(C(F)(F)F)ccc2C(F)(F)F)c1` [N-((2,5-bis(trifluoromethyl)phenyl)carbamoyl)-4-(2-hydroxypropan-2-yl)furan-2-sulfonamide] were less than 1 µM and less than 10 µM.
With `Cc1cnc(C(=O)NCCc2ccc(S(=O)(=O)NC(=O)NC3CCCCC3)cc2)cn1` [Glipizide, reference compound], the IC50 at NLRP3 inflammasome [1] (setting [7]) and on NLRP3 inflammasome [2] (setting [8]) was greater than 200 µM throughout.
With `CC(C)n1ccc(S(=O)(=O)NC(=O)Nc2c(C3CC3)cc(Cl)c3c2CCC3)n1` [N-((7-chloro-5-cyclopropyl-2,3-dihydro-1H-inden-4-yl)carbamoyl)-1-isopropyl-1H-pyrazole-3-sulfonamide], the concentration for half-maximal inhibition (IC50) on NLRP3 inflammasome [1] (setting [3]) and on NLRP3 inflammasome [2] (setting [4]) was less than 1 µM throughout.
As for `Cc1cc(C(=O)NCCc2ccc(S(=O)(=O)NC(=O)Nc3c4c(cc5c3CCC5)CCC4)cc2)no1` [N-(4-(N-((1,2,3,5,6,7-hexahydro-s-indacen-4-yl)carbamoyl)sulfamoyl)phenethyl)-5-methylisoxazole-3-carboxamide], the IC50 at NLRP3 inflammasome [1] (setting [3]) and at NLRP3 inflammasome [2] (setting [4]) was less than 1 µM each time.
For `CCc1cc(Cl)cc(CC)c1NC(=O)NS(=O)(=O)c1ccn(C(C)C)n1` [N-((4-chloro-2,6-diethylphenyl)carbamoyl)-1-isopropyl-1H-pyrazole-3-sulfonamide], the IC50 at NLRP3 inflammasome [1] (setting [3]) and on NLRP3 inflammasome [2] (setting [4]) was less than 10 µM in each case.
As for `CCCNC(=O)NS(=O)(=O)c1ccc(Cl)cc1` [Chlorpropamide, reference compound], the half-inhibitory concentration (IC50) at NLRP3 inflammasome [1] (setting [7]) and at NLRP3 inflammasome [2] (setting [8]) was greater than 200 µM each time.
Take `COc1cccc(S(=O)(=O)NC(=O)Nc2c3c(cc4c2CCC4)CCC3)c1` [N-(1,2,3,5,6,7-hexahydros-indacen-4-ylcarbamoyl)-3-methoxybenzenesulfonamide]: the IC50 at NLRP3 inflammasome [1] (setting [3]) and on NLRP3 inflammasome [2] (setting [4]) was less than 0.1 µM throughout.
For `Cc1ccc(S(=O)(=O)NC(=O)NN2CC3CCCC3C2)cc1` (centres unmarked) [Gliclazide, reference compound], the IC50 at NLRP3 inflammasome [1] (setting [7]) and on NLRP3 inflammasome [2] (setting [8]) was greater than 200 µM each time.
With `CC(=O)c1ccc(S(=O)(=O)NC(=O)Nc2c3c(cc4c2CCC4)CCC3)cc1` [4-Acetyl-N-((1,2,3,5,6,7-hexahydro-s-indacen-4-yl)carbamoyl)benzenesulfonamide], the IC50 was less than 0.1 µM on NLRP3 inflammasome [1] (setting [3]) and less than 1 µM at NLRP3 inflammasome [2] (setting [4]).
Regarding `Cc1c2c(c(NC(=O)NS(=O)(=O)c3cc(C(C)(C)O)co3)c3c1CCC3)CCC2` [4-(2-hydroxypropan-2-yl)-N-((8-methyl-1,2,3,5,6,7-hexahydro-s-indacen-4-yl)carbamoyl)furan-2-sulfonamide], the IC50 on NLRP3 inflammasome [1] (setting [3]) and at NLRP3 inflammasome [2] (setting [4]) was less than 0.1 µM in each case.
Take `Cc1cc(Cl)cc(C(F)(F)F)c1NC(=O)NS(=O)(=O)c1ccn(C(C)C)n1` [N-((4-chloro-2-methyl-6-(trifluoromethyl)phenyl)carbamoyl)-1-isopropyl-1H-pyrazole-3-sulfonamide]: the 50% inhibitory concentration (IC50) at NLRP3 inflammasome [1] (setting [9]) is greater than 10 µM; on NLRP3 inflammasome [2] (setting [4]), less than 10 µM.
The corresponding values for `COc1cc(Cl)cc(OC)c1NC(=O)NS(=O)(=O)c1ccn(C(C)C)n1` [N-((4-chloro-2,6-dimethoxyphenyl)carbamoyl)-1-isopropyl-1H-pyrazole-3-sulfonamide] are greater than 10 µM and less than 50 µM.
Take `COc1ccc2c(c1)C(=O)N(CCc1ccc(S(=O)(=O)NC(=O)Nc3c4c(cc5c3CCC5)CCC4)cc1)C(=O)C2(C)C` [N-((1,2,3,5,6,7-hexahydro-s-indacen-4-yl)carbamoyl)-4-(2-(7-methoxy-4,4-dimethyl-1,3-dioxo-3,4-dihydroisoquinolin-2(1H)-yl)ethyl)benzenesulfonamide]: the values for the IC50 on NLRP3 inflammasome [1] (setting [3]) and on NLRP3 inflammasome [2] (setting [4]) were less than 1 µM and less than 10 µM, respectively.

The values are drawn from patent US10538487B2, “Sulfonylureas and related compounds and use of same” (priority 2015, dated 2020).
